Key:
Assay type in all cases: biochemical
c-Mer = c-Mer (Homo sapiens (Human), UniProt Q12866); experiment: TAM Enzymatic Assay (HTRF), Mer; details: 60 min, room temperature
Protocol: The kinase assay buffer contained 50 mM HEPES, pH7.5, 10 mM MgCl2, 1 mM EGTA, 0.01% NP-40 and 2 mM DTT. 0.1 ul test compounds dissolved in DMSO were transferred from compound plates to white 384-well assay plates (Greiner […] plates). […] 4 ul enzyme solution (or assay buffer for the enzyme blank) was added to the appropriate wells in each plate, and then 4 ul/well substrate solution was added to initiate the reaction. The plate was protected from light and incubated at room temperature for 60 min. […] The plate was incubated for 1 h at room temperature, and HTRF (homogenous time resolved fluorescence) signal was measured on a PHERAstar FS plate reader (BMG labtech). Percentage of inhibition was calculated for each concentration and IC50 value was generated from curve fitting with GraphPad Prism software.

phosphor-Axl = phosphor-Axl (Homo sapiens (Human), UniProt P30530); experiment: TAM Enzymatic Assay (HTRF), Axl; details: recombinant autophosphorylated Axl, 60 min, room temperature
Tyro3 = Tyro3 (Homo sapiens (Human), UniProt Q06418); experiment: TAM Enzymatic Assay (HTRF), Tyro3; details: Tyro3, 60 min, room temperature
How it was run: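 HTRF kinase assay in 50 mM HEPES pH 7.5, 10 mM MgCl2, 1 mM EGTA, 0.01% NP-40, 2 mM DTT; compound in DMSO pre-dispensed, enzyme added, reaction started with substrate, 60 min at room temperature in the dark.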

phosphor-Axl, sequence (P30530 26-894): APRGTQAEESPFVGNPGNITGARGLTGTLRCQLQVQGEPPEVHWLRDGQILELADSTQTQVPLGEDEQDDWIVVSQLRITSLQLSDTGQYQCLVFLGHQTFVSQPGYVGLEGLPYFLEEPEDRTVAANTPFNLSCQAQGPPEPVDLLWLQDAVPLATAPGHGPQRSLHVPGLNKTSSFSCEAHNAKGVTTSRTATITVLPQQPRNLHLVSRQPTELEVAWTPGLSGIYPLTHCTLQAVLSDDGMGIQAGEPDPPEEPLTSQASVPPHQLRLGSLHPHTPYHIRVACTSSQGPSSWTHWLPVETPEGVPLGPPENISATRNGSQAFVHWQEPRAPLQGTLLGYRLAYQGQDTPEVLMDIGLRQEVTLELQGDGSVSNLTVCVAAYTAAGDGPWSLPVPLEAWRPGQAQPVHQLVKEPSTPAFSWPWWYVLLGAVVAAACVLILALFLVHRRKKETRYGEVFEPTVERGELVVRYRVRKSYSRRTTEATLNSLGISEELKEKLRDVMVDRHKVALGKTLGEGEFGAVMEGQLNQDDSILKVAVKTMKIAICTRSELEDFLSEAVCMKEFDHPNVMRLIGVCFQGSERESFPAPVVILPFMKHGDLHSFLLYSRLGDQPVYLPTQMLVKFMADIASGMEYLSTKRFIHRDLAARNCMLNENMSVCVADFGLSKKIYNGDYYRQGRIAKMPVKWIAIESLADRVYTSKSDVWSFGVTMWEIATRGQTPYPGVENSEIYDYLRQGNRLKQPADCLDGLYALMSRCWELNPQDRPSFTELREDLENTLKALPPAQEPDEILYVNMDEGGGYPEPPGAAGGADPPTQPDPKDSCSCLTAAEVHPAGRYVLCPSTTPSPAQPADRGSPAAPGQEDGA
Tyro3, sequence (Q06418 41-890): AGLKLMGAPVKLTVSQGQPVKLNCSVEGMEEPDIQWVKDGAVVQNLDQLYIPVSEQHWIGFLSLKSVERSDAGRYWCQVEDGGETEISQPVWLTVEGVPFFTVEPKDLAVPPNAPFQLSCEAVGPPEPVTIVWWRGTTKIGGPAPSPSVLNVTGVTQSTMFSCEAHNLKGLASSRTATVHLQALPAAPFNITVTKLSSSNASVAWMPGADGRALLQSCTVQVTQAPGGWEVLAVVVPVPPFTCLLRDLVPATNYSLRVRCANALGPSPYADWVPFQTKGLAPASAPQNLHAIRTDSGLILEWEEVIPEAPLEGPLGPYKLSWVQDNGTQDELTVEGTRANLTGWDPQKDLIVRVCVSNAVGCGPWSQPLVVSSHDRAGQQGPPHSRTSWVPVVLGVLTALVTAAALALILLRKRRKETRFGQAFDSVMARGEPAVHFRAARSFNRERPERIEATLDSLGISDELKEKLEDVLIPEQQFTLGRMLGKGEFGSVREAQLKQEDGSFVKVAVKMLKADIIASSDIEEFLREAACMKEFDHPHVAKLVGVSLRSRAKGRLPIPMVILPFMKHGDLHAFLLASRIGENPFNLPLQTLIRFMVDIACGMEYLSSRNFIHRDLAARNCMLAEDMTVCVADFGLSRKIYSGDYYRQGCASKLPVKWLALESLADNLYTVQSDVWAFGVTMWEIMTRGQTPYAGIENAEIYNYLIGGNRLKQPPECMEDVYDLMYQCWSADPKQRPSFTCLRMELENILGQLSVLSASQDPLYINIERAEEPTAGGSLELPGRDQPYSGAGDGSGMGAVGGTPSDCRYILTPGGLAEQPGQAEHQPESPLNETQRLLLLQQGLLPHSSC
c-Mer, sequence (Q12866 21-999): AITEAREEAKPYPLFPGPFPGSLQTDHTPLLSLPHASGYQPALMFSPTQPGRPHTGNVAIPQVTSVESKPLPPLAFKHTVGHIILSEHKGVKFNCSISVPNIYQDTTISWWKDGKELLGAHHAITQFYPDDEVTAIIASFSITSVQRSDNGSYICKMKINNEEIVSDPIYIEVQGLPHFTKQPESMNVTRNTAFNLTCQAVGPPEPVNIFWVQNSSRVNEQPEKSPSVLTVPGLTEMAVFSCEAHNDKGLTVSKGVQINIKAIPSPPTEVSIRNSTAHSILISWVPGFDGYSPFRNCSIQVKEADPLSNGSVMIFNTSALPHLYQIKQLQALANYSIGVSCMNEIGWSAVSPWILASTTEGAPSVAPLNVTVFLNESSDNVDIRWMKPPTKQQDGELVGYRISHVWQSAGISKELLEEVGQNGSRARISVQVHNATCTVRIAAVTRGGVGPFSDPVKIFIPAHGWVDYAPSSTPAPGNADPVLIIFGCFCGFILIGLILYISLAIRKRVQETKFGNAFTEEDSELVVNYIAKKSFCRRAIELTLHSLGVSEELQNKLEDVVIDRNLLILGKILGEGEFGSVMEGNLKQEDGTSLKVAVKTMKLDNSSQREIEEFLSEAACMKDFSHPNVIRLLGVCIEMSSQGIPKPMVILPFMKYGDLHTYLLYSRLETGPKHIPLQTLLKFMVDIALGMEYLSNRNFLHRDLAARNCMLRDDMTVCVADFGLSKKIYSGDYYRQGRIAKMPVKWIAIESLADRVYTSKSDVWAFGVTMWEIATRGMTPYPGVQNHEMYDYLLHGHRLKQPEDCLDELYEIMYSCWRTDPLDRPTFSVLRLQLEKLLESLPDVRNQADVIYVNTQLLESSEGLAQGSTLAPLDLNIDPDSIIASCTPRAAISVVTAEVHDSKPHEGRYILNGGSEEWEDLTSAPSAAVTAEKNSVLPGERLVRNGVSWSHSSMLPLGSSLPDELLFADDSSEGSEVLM

Row | IC50 (c-Mer) [nM] | IC50 (phosphor-Axl) [nM] | IC50 (Tyro3) [nM] | Structure (SMILES)
1 | ≤ 5 | ≤ 5 | > 100 | CN(C)C(=O)N1CCC(c2cc(-c3ccc(NC(=O)c4cccn(-c5ccccc5)c4=O)cc3)c3c(N)ncnn23)CC1 [Example 44, N-[4-(4-Amino-7-{1-[(dimethylamino)carbonyl]piperidin-4-yl}pyrrolo[2,1-f][1,2,4]triazin-5-yl)phenyl]-2-oxo-1-phenyl-1,2-dihydropyridine-3-carboxamide]
2 | ≤ 5 | ≤ 5 | 10 to 100 | CN(C)C(=O)N1CCC(c2cc(-c3ccc(NC(=O)c4cccn(-c5ccc(F)cc5)c4=O)cc3)c3c(N)ncnn23)CC1 [Example 45, N-[4-(4-Amino-7-{1-[(dimethylamino)carbonyl]piperidin-4-yl}pyrrolo[2,1-f][1,2,4]triazin-5-yl)phenyl]-1-(4-fluorophenyl)-2-oxo-1,2-dihydropyridine-3-carboxamide]
3 | ≤ 5 | ≤ 5 | 10 to 100 | CN(C)C(=O)N1CCC(c2cc(-c3ccc(NC(=O)c4cccn(-c5ccccc5)c4=O)cc3F)c3c(N)ncnn23)CC1 [Example 46, N-[4-(4-Amino-7-{1-[(dimethylamino)carbonyl]piperidin-4-yl}pyrrolo[2,1-f][1,2,4]triazin-5-yl)-3-fluorophenyl]-2-oxo-1-phenyl-1,2-dihydropyridine-3-carboxamide]
4 | ≤ 5 | ≤ 5 | 10 to 100 | CN(C)C(=O)N1CCC(c2cc(-c3ccc(NC(=O)c4cccn(-c5ccc(F)cc5)c4=O)cc3F)c3c(N)ncnn23)CC1 [Example 47, N-[4-(4-Amino-7-{1-[(dimethylamino)carbonyl]piperidin-4-yl}pyrrolo[2,1-f][1,2,4]triazin-5-yl)-3-fluorophenyl]-1-(4-fluorophenyl)-2-oxo-1,2-dihydropyridine-3-carboxamide]
5 | ≤ 5 | ≤ 5 | 10 to 100 | COCCN1CCC(c2cc(-c3ccc(NC(=O)c4cccn(-c5ccc(F)cc5)c4=O)cc3)c3c(N)ncnn23)CC1 [Example 49, N-(4-{4-Amino-7-[1-(2-methoxyethyl)piperidin-4-yl]pyrrolo[2,1-f][1,2,4]triazin-5-yl}phenyl)-1-(4-fluorophenyl)-2-oxo-1,2-dihydropyridine-3-carboxamide]
6 | ≤ 5 | ≤ 5 | 10 to 100 | COCCN1CCC(c2cc(-c3ccc(NC(=O)c4cccn(-c5ccccc5)c4=O)cc3F)c3c(N)ncnn23)CC1 [Example 50, N-(4-{4-Amino-7-[1-(2-methoxyethyl)piperidin-4-yl]pyrrolo[2,1-f][1,2,4]triazin-5-yl}-3-fluorophenyl)-2-oxo-1-phenyl-1,2-dihydropyridine-3-carboxamide]
7 | ≤ 5 | ≤ 5 | 5 to 10 | COCCN1CCC(c2cc(-c3ccc(NC(=O)c4cccn(-c5ccc(F)cc5)c4=O)cc3F)c3c(N)ncnn23)CC1 [Example 51, N-(4-{4-Amino-7-[1-(2-methoxyethyl)piperidin-4-yl]pyrrolo[2,1-f][1,2,4]triazin-5-yl}-3-fluorophenyl)-1-(4-fluorophenyl)-2-oxo-1,2-dihydropyridine-3-carboxamide]
8 | ≤ 5 | ≤ 5 | 10 to 100 | Nc1ncnn2c(C3CCN(CCO)CC3)cc(-c3ccc(NC(=O)c4cccn(-c5ccccc5)c4=O)cc3)c12 [Example 52, N-(4-{4-Amino-7-[1-(2-hydroxyethyl)piperidin-4-yl]pyrrolo[2,1-f][1,2,4]triazin-5-yl}phenyl)-2-oxo-1-phenyl-1,2-dihydropyridine-3-carboxamide]
9 | ≤ 5 | ≤ 5 | 10 to 100 | Nc1ncnn2c(C3CCN(CCO)CC3)cc(-c3ccc(NC(=O)c4cccn(-c5ccccc5)c4=O)cc3F)c12 [Example 54]
10 | ≤ 5 | ≤ 5 | 5 to 10 | Nc1ncnn2c(C3CCN(CCO)CC3)cc(-c3ccc(NC(=O)c4cccn(-c5ccc(F)cc5)c4=O)cc3F)c12 [Example 55]
11 | ≤ 5 | ≤ 5 | 10 to 100 | CC(C)n1cc(C(=O)Nc2ccc(-c3cc(C4CCN(C(=O)N(C)C)CC4)n4ncnc(N)c34)cc2)c(=O)n(-c2ccccc2)c1=O [Example 61, N-(4-(4-Amino-7-(1-(dimethylcarbamoyl)piperidin-4-yl)pyrrolo[1,2-f][1,2,4]triazin-5-yl)phenyl)-1-isopropyl-2,4-dioxo-3-phenyl-1,2,3,4-tetrahydropyrimidine-5-carboxamide]
12 | ≤ 5 | ≤ 5 | 10 to 100 | CCN(C)C(=O)N1CCC(c2cc(-c3ccc(NC(=O)c4cn(C(C)C)c(=O)n(-c5ccccc5)c4=O)cc3)c3c(N)ncnn23)CC1 [Example 62, N-(4-(4-Amino-7-(1-(ethyl(methyl)carbamoyl)piperidin-4-yl)pyrrolo[1,2-f][1,2,4]triazin-5-yl)phenyl)-1-isopropyl-2,4-dioxo-3-phenyl-1,2,3,4-tetrahydropyrimidine-5-carboxamide]
13 | ≤ 5 | ≤ 5 | 10 to 100 | CC(C)C(=O)N1CCC(c2cc(-c3ccc(NC(=O)c4cn(C(C)C)c(=O)n(-c5ccccc5)c4=O)cc3)c3c(N)ncnn23)CC1 [Example 63, N-(4-(4-Amino-7-(1-isobutyrylpiperidin-4-yl)pyrrolo[1,2-f][1,2,4]triazin-5-yl)phenyl)-1-isopropyl-2,4-dioxo-3-phenyl-1,2,3,4-tetrahydropyrimidine-5-carboxamide]
14 | ≤ 5 | ≤ 5 | 10 to 100 | CC(C)n1cc(C(=O)Nc2ccc(-c3cc(C4CCN(C)CC4)n4ncnc(N)c34)cc2)c(=O)n(-c2ccccc2)c1=O [Example 64, N-(4-(4-Amino-7-(1-methylpiperidin-4-yl)pyrrolo[1,2-f][1,2,4]triazin-5-yl)phenyl)-1-isopropyl-2,4-dioxo-3-phenyl-1,2,3,4-tetrahydropyrimidine-5-carboxamide]
15 | ≤ 5 | ≤ 5 | 10 to 100 | CC(C)n1cc(C(=O)Nc2ccc(-c3cc(C4CCN(C(=O)N(C)C)CC4)n4ncnc(N)c34)cc2)c(=O)n(-c2ccc(F)cc2)c1=O [Example 65, N-(4-(4-Amino-7-(1-(dimethylcarbamoyl)piperidin-4-yl)pyrrolo[1,2-f][1,2,4]triazin-5-yl)phenyl)-3-(4-fluorophenyl)-1-isopropyl-2,4-dioxo-1,2,3,4-tetrahydropyrimidine-5-carboxamide]
16 | ≤ 5 | ≤ 5 | > 100 | CCn1cc(C(=O)Nc2ccc(-c3cc(C4CCN(C(=O)N(C)C)CC4)n4ncnc(N)c34)cc2)c(=O)n(-c2ccc(F)cc2)c1=O [Example 67, N-(4-(4-Amino-7-(1-(dimethylcarbamoyl)piperidin-4-yl)pyrrolo[1,2-f][1,2,4]triazin-5-yl)phenyl)-1-ethyl-3-(4-fluorophenyl)-2,4-dioxo-1,2,3,4-tetrahydropyrimidine-5-carboxamide]
17 | ≤ 5 | ≤ 5 | > 100 | CCn1cc(C(=O)Nc2ccc(-c3cc(C4CCN(C(=O)N5CCOCC5)CC4)n4ncnc(N)c34)cc2)c(=O)n(-c2ccc(F)cc2)c1=O [Example 68, N-(4-(4-Amino-7-(1-(morpholine-4-carbonyl)piperidin-4-yl)pyrrolo[1,2-f][1,2,4]triazin-5-yl)phenyl)-1-ethyl-3-(4-fluorophenyl)-2,4-dioxo-1,2,3,4-tetrahydropyrimidine-5-carboxamide]
18 | ≤ 5 | ≤ 5 | 10 to 100 | CC(C)n1cc(C(=O)Nc2ccc(-c3cc(C4CCN(C(=O)N(C)C)CC4)n4ncnc(N)c34)cc2)c(=O)n(-c2cccc(F)c2)c1=O [Example 70, N-(4-(4-Amino-7-(1-(dimethylcarbamoyl)piperidin-4-yl)pyrrolo[1,2-f][1,2,4]triazin-5-yl)phenyl)-3-(3-fluorophenyl)-1-isopropyl-2,4-dioxo-1,2,3,4-tetrahydropyrimidine-5-carboxamide]
19 | ≤ 5 | ≤ 5 | 10 to 100 | CC(C)C(=O)N1CCC(c2cc(-c3ccc(NC(=O)c4cc5c(n(-c6ccccc6)c4=O)CCCC5=O)cc3)c3c(N)ncnn23)CC1 [Example 74, N-(4-(4-Amino-7-(1-isobutyrylpiperidin-4-yl)pyrrolo[1,2-f][1,2,4]triazin-5-yl)phenyl)-2,5-dioxo-1-phenyl-1,2,5,6,7,8-hexahydroquinoline-3-carboxamide]
20 | ≤ 5 | ≤ 5 | 10 to 100 | CC(C)C(=O)N1CCC(c2cc(-c3ccc(NC(=O)c4cn(C(C)C)c(=O)n(-c5ccccc5)c4=O)cc3F)c3c(N)ncnn23)CC1 [Example 75, N-(4-(4-Amino-7-(1-isobutyrylpiperidin-4-yl)pyrrolo[1,2-f][1,2,4]triazin-5-yl)-3-fluorophenyl)-1-isopropyl-2,4-dioxo-3-phenyl-1,2,3,4-tetrahydropyrimidine-5-carboxamide]
21 | ≤ 5 | ≤ 5 | 10 to 100 | CC(C)C(=O)N1CCC(c2cc(-c3ccc(NC(=O)c4cn(C(C)C)c(=O)n(-c5cccnc5)c4=O)cc3)c3c(N)ncnn23)CC1 [Example 78, N-(4-(4-Amino-7-(1-isobutyrylpiperidin-4-yl)pyrrolo[1,2-f][1,2,4]triazin-5-yl)phenyl)-1-isopropyl-2,4-dioxo-3-(pyridin-3-yl)-1,2,3,4-tetrahydropyrimidine-5-carboxamide]

— patent US9981975B2, “Pyrrolotriazine compounds as tam inhibitors” (Incyte Corporation, priority 2016, dated 2018)
